This is an account of results in US20210317102A1, “INHIBITORS OF INTEGRATED STRESS RESPONSE PATHWAY” (Praxis Biotech LLC, priority 2019, published 2021).

Experiment [1] concerns ATF4 expression, HEK293T cells carrying the ATF4 luciferase reporter. Description: ATF4 expression inhibition assay (ATF4 luciferase reporter). Type of experiment: cell-based. Particulars: Homo sapiens, HEK-293T, 100 nM thapsigargin, 3 hours. As to the method: The ATF4 reporter was prepared by fusing the human full length 5′UTR of ATF4 (NCBI Accession No. BC022088.2) upstream of the firefly luciferase coding sequence lacking the initiator methionine. The fused sequence was cloned into pLenti-EFla-C-Myc-DDK-IRES-Puro cloning vector (Origen #PS100085) using standard methods. Virus production was carried out by using Lenti-X™ Packaging Single Shots Protocol (Clonetech #631276). Viral particles were used to transduce HEK293T cells (ATCC #CRL-3216, ATCC Manassas, Va.), which were subsequently selected with puromycin to generate stable cell line. Cells were maintained at 37° C. and 5% CO2 in DMEM-F12 (Hyclone #SH30023.02) supplemented with 10% heat-inactivated fetal bovine serum (Gibco #16000-044), 2 mM L-glutamine (Gibco #25030-081), 100 U/ml penicillin, and 100 μg/ml streptomycin (Gibco #^15140-122).
HEK293T cells carrying the ATF4 luciferase reporter were plated on 96-well plates (Nunc) at 10,000 cells per well. Cells were treated two days after seeding with 100 nM thapsigargin (Tg) (Sigma-Aldrich #T9033) in the presence of different concentrations of selected compounds ranging from 1 nM to 10 μM. Cells without treatment or cells treated with Tg alone were used as controls. Assay plates containing cells were incubated for 3 hours at 37° C.
Luciferase reactions were performed using Luciferase Assay System (Promega #E1501) as specified by the manufacturer. Luminescence was read with an integration time of 1 s and a gain of 110 using a Cytation-5 multi-mode microplate reader (BioTek). Relative luminescence units were normalized to Tg treatment (0% inhibition) and untreated cells (100% inhibition) and the percentage of ATF4 inhibition was calculated.
Accordingly, inhibition of ATF4 expression as a result of the test compound indicates suppression of the ISR pathway.
(In general: Reporter assays use an easily measured gene product as a stand-in for the process of interest.)

In experiment [2] the test system is Chinese hamster ovary (CHO) cells. Description: Protein synthesis assay (puromycin incorporation, western blot). The settings on record: 2 hours, media alone = 100%; for activity at 1 µM: Cricetulus griseus, unstressed CHO cells (without Tg), 1 μM test compound, read-out: % Protein synthesis relative to untreated (1 μM test compound); for % Recovery of protein synthesis (1 μM test compound): stressed CHO cells, 300 nM Tg plus 1 μM test compound, Tg alone = 0%. It counts as cell-based. As to the method: Chinese hamster ovary (CHO) cells were maintained at 37° C. and 5% CO2 in Dulbecco's Modified Eagle's Media (DMEM) supplemented with 10% fetal bovine serum, 2 mM L-glutamine, 100 U/ml penicillin, and 100 μg/ml streptomycin. After reaching 80% of confluence, cells were detached and seeded on 6 well plates in complete media, allowed to recover overnight and treated for 2 hours with 1 μM of the test compound (to assess protein synthesis levels in unstressed condition), or for 2 hours with 300 nM Tg in the presence of 1 μM of the test compound (to assess the recovery of protein synthesis in a stressed condition). Cells with Tg alone were used as controls.
After the 2 hours treatments, media were replaced by adding 10 μg/ml puromycin (Sigma Aldrich #P8833) in complete media for 30 min. Media were removed and cells were lysed with SDS-PAGE lysis buffer. Lysates were transferred to 1.5 ml tubes and sonicated for 3 min and total protein amount were quantified using BCA Protein Assay Kit (Pierce). Equal amount of protein (30 μg) was loaded on SDS-PAGE gels. Proteins were transferred onto […] PVDF membranes (BioRad) and probed with primary antibodies diluted in Tris-buffered saline supplemented with 0.1% Tween 20 (Merck #S6996184 505) and 3% bovine serum albumin (Rockland #BSA-50).
Puromycin (12D10) (Merck #MABE343) and j-actin (Sigma Aldrich #A5441) antibodies were used as primary antibody. A HRP-conjugated secondary antibody (Rockland) was employed to detect immune-reactive bands using enhanced chemiluminescence (ECL Western Blotting Substrate, Pierce). Quantification of protein bands was done by densitometry using ImageJ software.
Percent increase of protein synthesis in unstressed cells (without Tg treatment) in the presence of media alone or certain test compounds is shown in Table 3. The percentage levels were normalized to the media alone condition, which correspond to 100% protein synthesis.
Percent recovery of protein synthesis in stressed cells (with Tg treatment) due to the test compounds at 1 μM is also shown in Table 3. The levels were normalized to the media alone and Tg alone conditions, which correspond to 100% and 0% respectively.
(In general: A western blot detects proteins with antibodies after separation by electrophoresis.)

SMILES strings stand for the structures. Some results are limits rather than exact numbers.

What is called IC50 is the midpoint of a concentration-inhibition curve. A high value points to a need for much substance. In turn, `NC(COc1ccc(Cl)c(F)c1)CN1CCC(NC(=O)c2ccc3cc(Cl)ccc3n2)CC1` (centres unmarked) [Compound 1, N-(1-(2-amino-3-(4-chloro-3-fluorophenoxy)propyl)piperidin-4-yl)-6-chloroquinoline-2-carboxamide] displayed an IC50 in experiment [1] greater than 1000 nM. In experiment [2], the activity at 1 µM amounted to 167% and the “% Recovery of protein synthesis (1 μM test compound)” value (from here on “% Recovery of protein synthesis”) is on record as 233.4%.
`O=C(COc1ccc(Cl)c(F)c1)NC1CC2CCC1CN2CC(O)COc1ccc(Cl)c(F)c1` (centres unmarked) [Compound 2, 2-(4-chloro-3-fluorophenoxy)-N-(2-(3-(4-chloro-3-fluorophenoxy)-2-hydroxypropyl)-2-azabicyclo[2.2.2]octan-5-yl)acetamide] gave an IC50 in experiment [1] of less than 1000 nM. In experiment [2], the activity at 1 µM amounted to 98.3% and the “% Recovery of protein synthesis” value was found to be 252.0%.
In experiment [1], `O=C(COc1ccc(Cl)c(F)c1)N[C@H]1CC[C@H](NC(=O)c2nc3ccc(Cl)cc3[nH]2)CC1` [Compound 3, trans-6-chloro-N-(4-(2-(4-chloro-3-fluorophenoxy)acetamido)cyclohexyl)-1H-benzo[d]imidazole-2-carboxamide] had an IC50 of less than 1000 nM. In experiment [2], the activity at 1 µM was 120% and the “% Recovery of protein synthesis” value stood at 109.9%.
Regarding `O=C(NC1CCN(CC(O)COc2ccc(Cl)c(F)c2)CC1)c1nc2ccc(Cl)cc2[nH]1` (centres unmarked) [Compound 4, 6-chloro-N-(1-(3-(4-chloro-3-fluorophenoxy)-2-hydroxypropyl)piperidin-4-yl)-1H-benzo[d]imidazole-2-carboxamide], the IC50 in experiment [1] was less than 1000 nM. Besides, in experiment [2], the activity at 1 µM was 164% and the “% Recovery of protein synthesis” value is recorded as 246.6%.
In experiment [1], `O=C(COc1ccc(Cl)c(F)c1)NCC1CCN(CC(O)COc2ccc(Cl)c(F)c2)CC1` (centres unmarked) [Compound 5, 2-(4-chloro-3-fluorophenoxy)-N-((1-(3-(4-chloro-3-fluorophenoxy)-2-hydroxypropyl)piperidin-4-yl)methyl)acetamide] showed an IC50 greater than 1000 nM. Moreover, in experiment [2], the activity at 1 µM is 82.5% and the “% Recovery of protein synthesis” value is 71.9%.
Regarding `O=C(NCC1CCN(CC(O)COc2ccc(Cl)c(F)c2)CC1)c1cc2cc(Cl)ccc2o1` (centres unmarked) [Compound 6, 5-chloro-N-((1-(3-(4-chloro-3-fluorophenoxy)-2-hydroxypropyl)piperidin-4-yl)methyl)benzofuran-2-carboxamide], the IC50 in experiment [1] was less than 1000 nM. The activity at 1 µM in experiment [2] was determined as 179%.
The compound `O=C(NCC1CCN(CC(O)COc2ccc(Cl)c(F)c2)CC1)c1ccc2cc(Cl)ccc2n1` (centres unmarked) [Compound 7, 6-chloro-N-((1-(3-(4-chloro-3-fluorophenoxy)-2-hydroxypropyl)piperidin-4-yl)methyl)quinoline-2-carboxamide] gave an IC50 in experiment [1] greater than 1000 nM. In addition, in experiment [2], the activity at 1 µM is 114% and the “% Recovery of protein synthesis” value was determined as 131.9%.
In experiment [1], `O=C(N[C@H]1CC[C@H](NCC(O)COc2ccc(Cl)cc2)CC1)c1nc2ccc(Cl)cc2[nH]1` (stereo partly drawn) [Compound 8, trans-6-chloro-N-(4-((3-(4-chlorophenoxy)-2-hydroxypropyl)amino)cyclohexyl)-1H-benzo[d]imidazole-2-carboxamide] returned an IC50 greater than 1000 nM. In addition, in experiment [2], the activity at 1 µM was 175% and the “% Recovery of protein synthesis” value turned out to be 128.3%.
On to `O=C(COc1ccc(Cl)c(F)c1)NC[C@H]1CC[C@H](NC(=O)COc2ccc(Cl)c(F)c2)CC1` [Compound 9, trans-2-(4-chloro-3-fluorophenoxy)-N-((4-(2-(4-chloro-3-fluorophenoxy)acetamido)cyclohexyl)methyl)acetamide], for which the IC50 in experiment [1] amounted to 72.4 nM. In experiment [2], the activity at 1 µM is 119% and the “% Recovery of protein synthesis” value was 26.1%.
`O=C(COc1ccc(Cl)c(F)c1)NC[C@H]1CC[C@H](NC(=O)c2ccc3cc(Cl)ccc3n2)CC1` [Compound 12, trans-6-chloro-N-(4-((2-(4-chloro-3-fluorophenoxy)acetamido)methyl)cyclohexyl)quinoline-2-carboxamide] showed an IC50 in experiment [1] of 120 nM. In experiment [2], the activity at 1 µM is 200% and the “% Recovery of protein synthesis” value came to 187.4%.
The compound `O=C(COc1ccc(Cl)c(F)c1)NC[C@H]1CC[C@H](NC(=O)c2cc3cc(Cl)ccc3o2)CC1` [Compound 13, trans-5-chloro-N-(4-((2-(4-chloro-3-fluorophenoxy)acetamido)methyl)cyclohexyl)benzofuran-2-carboxamide] showed an IC50 in experiment [1] of 19 nM. For the same compound, in experiment [2], the activity at 1 µM came to 129% and the “% Recovery of protein synthesis” value was found to be 120.4%.
Regarding `O=C(COc1ccc(Cl)c(F)c1)NC[C@H]1CC[C@H](NCC(O)COc2ccc(Cl)c(F)c2)CC1` (stereo partly drawn) [Compound 14, trans-2-(4-chloro-3-fluorophenoxy)-N-((4-((3-(4-chloro-3-fluorophenoxy)-2-hydroxypropyl)amino)cyclohexyl)methyl)acetamide], the IC50 in experiment [1] is greater than 10000 nM. For the same compound, in experiment [2], the activity at 1 µM stood at 150% and the “% Recovery of protein synthesis” value was 53.2%.
In the case of `O=C(COc1ccc(Cl)cc1)N[C@H]1CC[C@H](CNC(=O)c2cc3cc(Cl)ccc3o2)CC1` [Compound 15, trans-5-chloro-N-((4-(2-(4-chlorophenoxy)acetamido)cyclohexyl)methyl)benzofuran-2-carboxamide], inhibition in experiment [1] was half-maximal at 1.45 nM (IC50). In experiment [2], the activity at 1 µM worked out at 204% and the “% Recovery of protein synthesis” value is recorded as 176.3%.
Turning to `COc1ccc2oc(C(=O)NC[C@H]3CC[C@H](NC(=O)COc4ccc(Cl)c(F)c4)CC3)cc2c1` [Compound 16, trans-N-((4-(2-(4-chloro-3-fluorophenoxy)acetamido)cyclohexyl)methyl)-5-methoxybenzofuran-2-carboxamide], the IC50 in experiment [1] stood at 5.25 nM. Also, in experiment [2], the activity at 1 µM came to 147% and the “% Recovery of protein synthesis” value is on record as 102.4%.
Turning to `O=C(COc1ccc(Cl)c(F)c1)N[C@H]1CC[C@H](CNC(=O)c2ccc(Cl)cc2)CC1` [Compound 17, trans-4-chloro-N-((4-(2-(4-chloro-3-fluorophenoxy)acetamido)cyclohexyl)methyl)benzamide], inhibition in experiment [1] was half-maximal at 2.36 nM (IC50). In addition, in experiment [2], the activity at 1 µM amounted to 96.5% and the “% Recovery of protein synthesis” value came to 49.5%.
Take `O=C(COc1ccc(Cl)c(F)c1)N[C@H]1CC[C@H](CNC(=O)c2ccc(OC(F)(F)F)cc2)CC1` [Compound 18, trans-N-((4-(2-(4-chloro-3-fluorophenoxy)acetamido)cyclohexyl)methyl)-4-(trifluoromethoxy)benzamide]: half-maximal inhibition in experiment [1] (IC50) required 5.63 nM. Moreover, in experiment [2], the activity at 1 µM is 105% and the “% Recovery of protein synthesis” value amounted to 60.0%.
`O=C(COc1ccc(Cl)c(F)c1)N[C@H]1CC[C@H](CNC(=O)c2ccc(Cl)cn2)CC1` [Compound 19, trans-5-chloro-N-((4-(2-(4-chloro-3-fluorophenoxy)acetamido)cyclohexyl)methyl)picolinamide]: half-maximal inhibition in experiment [1] (IC50) was put at 20.1 nM. In addition, in experiment [2], the activity at 1 µM amounted to 131% and the “% Recovery of protein synthesis” value was 32.5%.
